Data taken from patent US8883963B2 (Cadila Healthcare Limited, priority 2007, dated 2014).
Starred links: 1 amine or outer side, 2 acyl side, 3 side chain; linkers in the order of their positions; H or OH if unused. Non-standard residues stand in square brackets, D forms with d. Residues, ends and D or L forms follow the SMILES beside them. ξ: configuration not given here. *: point of attachment. X9 = CCc1cc(OC)ccc1-c1ccc(CC(NC(=S)[C@H](CC(=O)O)N*)C(=S)NC(CCCc2ccccc2F)C(N)=O)cc1; ξBip(2'-Et-4'-OMe) = CCc1cc(OC)ccc1-c1ccc(CC(N)C(=O)O)cc1; X10 = O=C(C(CCCc1ccc(F)cc1F)N[*:1])[*:2]; ξbishPhe(2-F) = NC(CCCc1ccccc1F)C(=O)O; ξαMePhe(2-F) = CC(N)(Cc1ccccc1F)C(=O)O; aThr = C[C@H](O)[C@H](N)C(=O)O; ξhhPhe = NC(CCCc1ccccc1)C(=O)O; Aib = CC(C)(N)C(=O)O

Test system: RIN5F (Rat Insulinoma) cells
Assay: In vitro glucose-dependent insulin secretion (RIN5F cell assay screening protocol)
Assay type: cell-based
Settings: 16.7 mM glucose load
Procedure: RIN5F (Rat Insulinoma) cells were cultured in RPMI 1640 medium supplemented with sodium pyruvate (1 mM) HEPES and Glucose (4.5 g/L) in a humidified incubator (5% CO2), at 37° C. After trypsinization, RIN5F cells were seeded at a concentration of 0.2×10^6 cells per well, in 12 well plates.
The buffer was replaced after 40 min. and the cells were incubated (37° C.) with the test peptidomimetics, at different concentration, for 30 min., both in the presence (16.7 mM) and absence (0 mM) of glucose load. The supernatant was collected and the insulin amount was measured by ultra sensitive Rat insulin ELISA kit (Crystal Chem, IL). The protein was estimated in the supernatant using Bicinchoninic Acid kit, according to the manufacturer's protocol (Sigma Aldrich, MO). The total insulin content obtained in Pico-gram (pg) was divided with the total protein (μg) in order to normalize for differences in cell density between wells.

| Compound | Insulin secretion (0.1 nM test compd.) [pg/µg/h] | Insulin secretion (1 nM test compd.) [pg/µg/h] | Insulin secretion (10 nM test compd.) [pg/µg/h] |
| --- | --- | --- | --- |
| CCc1cc(OC)ccc1-c1ccc(CC(NC(=O)[C@H](CC(=O)O)NC(=O)[C@H](CO)NC(=O)[C@@H](NC(=O)C(C)(Cc2ccccc2F)NC(=O)[C@@H](NC(=O)CNC(=O)[C@H](CCC(N)=O)NC(=O)C(C)(C)NC(=O)[C@@H](N)Cc2c[nH]cn2)[C@@H](C)O)[C@@H](C)O)C(=O)NC(CCCc2ccccc2F)C(N)=O)cc1 (stereo partly drawn) [compound 85] (H-H[Aib]QGT[ξαMePhe(2-F)]TSD[ξBip(2'-Et-4'-OMe)][ξbishPhe(2-F)]-NH2) | 11.9 ± 0.17 | 14.2 ± 0.13 | 27.6 ± 0.16 |
| CCc1cc(OC)ccc1-c1ccc(CC(NC(=O)[C@H](CC(=O)O)NC(=O)[C@H](CO)NC(=O)[C@@H](NC(=O)C(C)(Cc2ccccc2F)NC(=O)[C@@H](NC(=O)CNC(=O)[C@H](CCC(N)=O)NC(=O)C(C)(C)NC(=O)[C@@H](N)Cc2c[nH]cn2)[C@@H](C)O)[C@@H](C)O)C(=O)NC(CCCc2ccc(F)cc2F)C(N)=O)cc1 (stereo partly drawn) [compound 86] (H-H[Aib]QGT[ξαMePhe(2-F)]TSD[ξBip(2'-Et-4'-OMe)][X10]-NH2) | 12.3 ± 0.33 | 14.8 ± 0.16 | 28.1 ± 0.22 |
| CCc1cc(OC)ccc1-c1ccc(CC(NC(=O)[C@H](CC(=O)O)NC(=O)[C@H](CO)NC(=O)[C@@H](NC(=O)C(C)(Cc2ccccc2F)NC(=O)[C@@H](NC(=O)CNC(=O)[C@H](CCC(N)=O)NC(=O)C(C)(C)NC(=O)[C@@H](N)Cc2c[nH]cn2)[C@H](C)O)[C@@H](C)O)C(=O)NC(CCCc2ccccc2)C(N)=O)cc1 (stereo partly drawn) [compound 109] (H-H[Aib]QG[aThr][ξαMePhe(2-F)]TSD[ξBip(2'-Et-4'-OMe)][ξhhPhe]-NH2) | 12.6 ± 0.25 | 15.3 ± 0.31 | 29.7 ± 0.48 |
| CCc1cc(OC)ccc1-c1ccc(CC(NC(=O)[C@H](CC(=O)O)NC(=O)[C@H](CO)NC(=O)[C@@H](NC(=O)C(C)(Cc2ccccc2F)NC(=O)[C@@H](NC(=O)CNC(=O)[C@H](CCC(N)=O)NC(=O)C(C)(C)NC(=O)[C@@H](N)Cc2c[nH]cn2)[C@H](C)O)[C@@H](C)O)C(=O)NC(CCCc2ccccc2F)C(N)=O)cc1 (stereo partly drawn) [compound 111] (H-H[Aib]QG[aThr][ξαMePhe(2-F)]TSD[ξBip(2'-Et-4'-OMe)][ξbishPhe(2-F)]-NH2) | 16.2 ± 0.20 | 22.2 ± 0.20 | 36.1 ± 0.31 |
| CCc1cc(OC)ccc1-c1ccc(CC(NC(=O)[C@H](CC(=O)O)NC(=O)[C@H](CO)NC(=O)[C@@H](NC(=O)C(C)(Cc2ccccc2F)NC(=O)[C@@H](NC(=O)CNC(=O)[C@H](CCC(N)=O)NC(=O)C(C)(C)NC(=O)[C@@H](N)Cc2c[nH]cn2)[C@H](C)O)[C@H](C)O)C(=O)NC(CCCc2ccccc2)C(N)=O)cc1 (stereo partly drawn) [compound 113] (H-H[Aib]QG[aThr][ξαMePhe(2-F)][aThr]SD[ξBip(2'-Et-4'-OMe)][ξhhPhe]-NH2) | 15.6 ± 0.31 | 21.8 ± 0.16 | 35.6 ± 0.28 |
| CCc1cc(OC)ccc1-c1ccc(CC(NC(=S)[C@H](CC(=O)O)NC(=O)[C@H](CO)NC(=O)[C@@H](NC(=O)C(C)(Cc2ccccc2F)NC(=O)[C@@H](NC(=O)CNC(=O)[C@H](CCC(N)=O)NC(=O)C(C)(C)NC(=O)[C@H](Cc2c[nH]cn2)NC(C)=O)[C@H](C)O)[C@H](C)O)C(=S)NC(CCCc2ccccc2F)C(N)=O)cc1 (stereo partly drawn) [compound 175] (Ac-H[Aib]QG[aThr][ξαMePhe(2-F)][aThr]S-X9) | 15.6 ± 0.33 | 21.8 ± 0.16 | 35.6 ± 0.26 |
